The record followed here is the supplement of paper PMC5412046.

Assay [1] relates to SB.mhdgc-1. In words: viability at highest tested concentration (MAXR) relative to DMSO; higher = less cytotoxic. The following applies: SB.mhdgc-1 (hereditary c.1380delA CDH1 gastric cancer). A digest of the protocol: (§1)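 Viability values are normalised to DMSO and given either at the highest concentration or as trapezoidal area under the curve. The assay used 500 hereditary or sporadic patient-derived gastric cancer cells in 5 μL medium per 1536 well, dosed by pintool with 23 nL of compound in DMSO at 11 threefold-diluted concentrations. CellTiter-Glo was added 48 h later for 30 min at room temperature, followed by luminescence reading on a ViewLux.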

Assay [2] concerns SB.msgc-1. The assay is described as above. The note with it: SB.msgc-1 (sporadic gastric cancer). A digest of the protocol:
as §1

Assay [3] relates to SB.mhdgc-1. In words: area under the dose-response curve of % viability (trapezoidal, 11 doses) (% viability x log10 concentration); higher = less cytotoxic. The note with it: SB.mhdgc-1 (hereditary c.1380delA CDH1 gastric cancer). The method in brief:
as §1

In assay [4] the test system is SB.msgc-1. The assay is described as above. The following applies: SB.msgc-1 (sporadic gastric cancer). The method in brief: as §1

The structures appear in SMILES notation.

In general, viability refers to a read-out of living cells in per cent, often relative to untreated cells. For the compound `Cc1ccc(C(=O)Nc2ccc([S+](=O)([O-])O)c3cc([S+](=O)([O-])O)cc([S+](=O)([O-])O)c23)cc1NC(=O)c1cccc(NC(=O)Nc2cccc(C(=O)Nc3cc(C(=O)Nc4ccc([S+](=O)([O-])O)c5cc([S+](=O)([O-])O)cc([S+](=O)([O-])O)c45)ccc3C)c2)c1` [Suramin sodium] (top concentration 46.0829 µM), the viability in assay [1] came out at 89.1%; in assay [2], 70%. The results for the “area under the dose-response curve” value in assay [3] and in assay [4] were 480 and 474, respectively.

Turning to `C[C@H](NC(=O)C(=O)Nc1ccccc1C(C)(C)C)C(=O)N[C@@H](CC(=O)O)C(=O)COc1c(F)c(F)cc(F)c1F` [Emricasan] (top concentration 46.0829 µM), the viability in assay [1] is 105%; in assay [2] it was 84.6%. Besides, the “area under the dose-response curve” value was found to be 537 in assay [3] and 574 in assay [4].

For the compound `CN1CCc2c(c3ccccc3n2Cc2ccc(C(=O)NO)cc2)C1` [Tubastatin A] (top concentration 46.0829 µM), the viability in assay [1] turned out to be 1.43%; in assay [2], 3.16%. Besides, the “area under the dose-response curve” value in assay [3] is 384; in assay [4] it was 430.

For `O=c1[nH]c(=O)n(C2CCCO2)cc1F` (centres undefined) [Tegafur] (top concentration 92.1659 µM), the viability in assay [1] was found to be 63.8%; in assay [2], 87%. Besides, the “area under the dose-response curve” value in assay [3] came to 555; in assay [4], 554.

For `NC1CCC(Nc2nc(Nc3ccc(C(=O)N4CCCCC4)cc3)c3ncn(-c4cccc(F)c4)c3n2)CC1` (centres undefined) [Purfalcamine] (top concentration 46.0829 µM), the viability in assay [1] was found to be 122%; in assay [2], 92.6%. Also, the “area under the dose-response curve” value in assay [3] is 624; in assay [4] it was 547.

With `COc1cc2cc(c1Cl)N(C)C(=O)C[C@H](OC(=O)C(C)C)[C@]1(C)O[C@@H]1[C@H](C)[C@@H]1C[C@@](O)(NC(=O)O1)[C@H](OC)/C=C/C=C(\C)C2` [Ansamitocin P3] (top concentration 46.0829 µM), the figures for the viability in assay [1] and in assay [2] were 40.3% and 40.8%, respectively. Also, the entries for the “area under the dose-response curve” value in assay [3] and in assay [4] were 223 and 207, respectively.

As to `COc1c(C)c2c(c(O)c1C/C=C(\C)CCC(=O)OCCN1CCOCC1)C(=O)OC2` [Mycophenolate mofetil] (top concentration 46.0829 µM), the results for the viability in assay [1] and in assay [2] were 88.3% and 55.1%, respectively. The “area under the dose-response curve” value in assay [3] was found to be 571; in assay [4], 510.

In the case of `C=CC[C@@H]1/C=C(\C)C[C@H](C)C[C@H](OC)[C@H]2O[C@@](O)(C(=O)C(=O)N3CCCC[C@H]3C(=O)O[C@H](/C(C)=C/[C@@H]3CC[C@@H](O)[C@H](OC)C3)[C@H](C)[C@@H](O)CC1=O)[C@H](C)C[C@@H]2OC` [FK-506] (top concentration 46.0829 µM), the viability in assay [1] is 86.3%; in assay [2] it was 68.7%. Moreover, the figures for the “area under the dose-response curve” value in assay [3] and in assay [4] were 462 and 533, respectively.

`CCCc1nc(C(C)(C)O)c(C(=O)O)n1Cc1ccc(-c2ccccc2-c2nn[nH]n2)cc1` [Olmesartan] (top concentration 46.0829 µM): the viability is 124% in assay [1] and 102% in assay [2]. Further, the “area under the dose-response curve” value in assay [3] turned out to be 573; in assay [4] it was 511.

For `ClC1=CC=C(C=C1)C(C#N)C2=C(Cl)C=C(C=C2Cl)N3\N=C/C(=O)NC3=O` (centres undefined) [Diclazuril] (top concentration 46.0829 µM), the results for the viability in assay [1] and in assay [2] were 8.68% and 61%, respectively. Further, the “area under the dose-response curve” value in assay [3] turned out to be 538; in assay [4], 511.

With `COCCCN1CCC(NC(=O)c2cc(Cl)c(N)c3c2OCC3)CC1` [Prucalopride] (top concentration 46.0829 µM), the viability came to 29.1% in assay [1] and 17.8% in assay [2]. For the same compound, the “area under the dose-response curve” value in assay [3] stood at 517; in assay [4], 480.

As for `CCCN[S+](=O)([O-])Nc1ncnc(OCCOc2ncc(Br)cn2)c1-c1ccc(Br)cc1` [Macitentan] (top concentration 46.0829 µM), the viability in assay [1] stood at 121%; in assay [2], 120%. In addition, the “area under the dose-response curve” value turned out to be 577 in assay [3] and 594 in assay [4].

In the case of `O=C(c1ccc(F)cc1)N1CCC[C@H](c2nc(-c3ccc(F)cc3)no2)C1` (top concentration 46.0829 µM), the results for the viability in assay [1] and in assay [2] were 76.5% and 104%, respectively. Further, the entries for the “area under the dose-response curve” value in assay [3] and in assay [4] were 500 and 582, respectively.

Consider `COc1ccc(-c2ccc3ncc4c(c3c2)n(-c2ccc(N3CCNCC3)c(C(F)(F)F)c2)c(=O)n4C)cn1` [NVP-BGT226] (top concentration 46.0829 µM), for which the viability in assay [1] is 1.45%; in assay [2], 0.962%. The “area under the dose-response curve” value in assay [3] was found to be 195; in assay [4], 305.

In the case of `CC1(C)[C@@H](O)CC[C@@]2(C)[C@H]1CC[C@]3(C)[C@@H]2C(=O)\C=C/4[C@@H]5C[C@](C)(CC[C@]5(C)CC[C@@]34C)C(O)=O` [Enoxolone] (top concentration 46.0829 µM), the viability came out at 57.4% in assay [1] and 98.3% in assay [2]. Moreover, the “area under the dose-response curve” value was determined as 505 in assay [3] and 565 in assay [4].

Take `F\C1=C\NC(=O)NC1=O` [Fluorouracil] (top concentration 46.0829 µM): the viability in assay [1] was determined as 43.1%; in assay [2] it was 45.2%. Moreover, the “area under the dose-response curve” value in assay [3] is 380; in assay [4] it was 449.
